Laboratory results: patent US11834453B2, “Substituted pyrimido[5,4-d]pyrimidines as HER2 inhibitors” (Array BioPharma Inc., priority 2020, dated 2023)

Columns and labels:
ErbB2 WT = ErbB2 WT (Homo sapiens (Human), UniProt P04626); assay: ErbB enzyme assay (CisBio HTRF KinEASE-TK), Assay 2; assay type: biochemical
Method in brief: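 Readout is HTRF KinEASE-TK, using Sa-XL665 and cryptate antibody for 1 h at 22 °C, as percent of control between DMSO-only (100) and pre-quenched (0) reactions. The kinase reaction runs 30 min at 22 °C with 1 mM ATP and 250 nM biotinylated TK substrate, in HEPES pH 7.4 with MgCl2 and 2% DMSO.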

EGFR wild type (EGFR WT) = EGFR wild type (EGFR WT) (Homo sapiens (Human), UniProt P00533); assay: Cellular phosphorylation assay, EGF-stimulated EGFR phosphorylation in engineered NIH 3T3 cells, Phospho-EGFR DuoSet IC ELISA, Assay 5; assay type: cell-based
Method in brief: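 Phospho-EGFR ELISA on lysates of engineered NIH 3T3 EGFR WT cells, IC50 derived from concentration curves. Cells plated at 20,000/well overnight, given compound dilutions 1 h at 37 °C, then rEGF 100 ng/ml for a further 10 min before lysis.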

[1] = biological target: ErbB2 with Exon 20 YVMA insertion (HER2-YVMA) (Homo sapiens (Human), UniProt P04626, INS775YVMA); assay: Cellular phosphorylation assay, constitutive ErbB2 phosphorylation (Y1196) in engineered NIH 3T3 cells, Assay 4; assay type: cell-based
Method in brief: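 In-cell Western in NIH 3T3 cells carrying ErbB2 exon 20 YVMA insertion, with no ligand stimulation. One hour compound exposure at 37 °C before fixation and anti-pY1196 plus GAPDH staining with dual-wavelength fluorescence. IC50 derived after GAPDH normalization.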

EGFR = EGFR (Homo sapiens (Human), UniProt P00533); assay: ErbB enzyme assay (CisBio HTRF KinEASE-TK), Assay 3; assay type: biochemical
Method in brief: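 HTRF dual-wavelength read after 1 h detection; POC normalised to DMSO (100) and pre-quenched (0) controls, IC50 where 4-parameter curve crosses 50 POC. Reaction: 250 nM TK-substrate biotin, 1 mM ATP, pH 7.4 HEPES buffer with MgCl2, 30 min, 22 °C.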

[2] = biological target: ErbB2 insYVMA (HER2-YVMA, SEQ ID NO: 2) (Homo sapiens, UniProt P04626, INS775YVMA/P1170A); assay: biochemical; settings: ErbB2 insYVMA enzyme assay; read-out: Assay 1 IC50
ErbB2 insYVMA (HER2-YVMA, SEQ ID NO: 2), sequence (P04626 with tags, fused parts or gaps INS775YVMA/P1170A limits assumed): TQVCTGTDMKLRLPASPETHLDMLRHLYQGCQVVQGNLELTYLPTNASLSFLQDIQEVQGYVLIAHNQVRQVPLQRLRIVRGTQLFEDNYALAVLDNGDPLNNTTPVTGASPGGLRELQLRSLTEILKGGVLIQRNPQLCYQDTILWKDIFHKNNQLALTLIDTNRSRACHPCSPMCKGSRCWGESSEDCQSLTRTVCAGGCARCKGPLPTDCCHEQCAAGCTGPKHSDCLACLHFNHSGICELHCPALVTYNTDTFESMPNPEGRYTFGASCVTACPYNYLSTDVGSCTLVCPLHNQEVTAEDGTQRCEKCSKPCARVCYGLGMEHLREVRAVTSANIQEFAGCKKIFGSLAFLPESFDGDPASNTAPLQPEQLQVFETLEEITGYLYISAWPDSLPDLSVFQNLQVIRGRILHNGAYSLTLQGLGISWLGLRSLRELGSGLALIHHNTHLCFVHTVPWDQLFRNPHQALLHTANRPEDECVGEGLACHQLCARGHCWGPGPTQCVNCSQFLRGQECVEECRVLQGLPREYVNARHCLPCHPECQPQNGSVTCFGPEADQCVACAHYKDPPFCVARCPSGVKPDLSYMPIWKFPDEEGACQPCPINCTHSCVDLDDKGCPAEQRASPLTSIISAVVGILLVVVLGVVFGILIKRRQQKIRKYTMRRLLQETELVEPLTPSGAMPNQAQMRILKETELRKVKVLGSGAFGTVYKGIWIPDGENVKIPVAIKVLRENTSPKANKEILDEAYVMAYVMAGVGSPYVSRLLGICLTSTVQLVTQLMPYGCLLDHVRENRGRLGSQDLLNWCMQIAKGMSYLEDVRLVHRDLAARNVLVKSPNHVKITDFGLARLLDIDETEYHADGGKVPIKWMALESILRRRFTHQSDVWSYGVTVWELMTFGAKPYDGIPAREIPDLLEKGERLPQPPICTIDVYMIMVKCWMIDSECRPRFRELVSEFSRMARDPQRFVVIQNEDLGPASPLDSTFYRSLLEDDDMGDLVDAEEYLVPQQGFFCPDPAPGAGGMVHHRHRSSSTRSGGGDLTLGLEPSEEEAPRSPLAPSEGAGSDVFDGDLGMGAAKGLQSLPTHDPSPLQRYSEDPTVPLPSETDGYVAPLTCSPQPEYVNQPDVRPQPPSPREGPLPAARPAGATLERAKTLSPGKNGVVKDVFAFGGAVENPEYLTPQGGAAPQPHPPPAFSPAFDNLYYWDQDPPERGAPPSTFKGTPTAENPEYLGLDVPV

EGFR wild type (EGFR WT), sequence (P00533 25-1210): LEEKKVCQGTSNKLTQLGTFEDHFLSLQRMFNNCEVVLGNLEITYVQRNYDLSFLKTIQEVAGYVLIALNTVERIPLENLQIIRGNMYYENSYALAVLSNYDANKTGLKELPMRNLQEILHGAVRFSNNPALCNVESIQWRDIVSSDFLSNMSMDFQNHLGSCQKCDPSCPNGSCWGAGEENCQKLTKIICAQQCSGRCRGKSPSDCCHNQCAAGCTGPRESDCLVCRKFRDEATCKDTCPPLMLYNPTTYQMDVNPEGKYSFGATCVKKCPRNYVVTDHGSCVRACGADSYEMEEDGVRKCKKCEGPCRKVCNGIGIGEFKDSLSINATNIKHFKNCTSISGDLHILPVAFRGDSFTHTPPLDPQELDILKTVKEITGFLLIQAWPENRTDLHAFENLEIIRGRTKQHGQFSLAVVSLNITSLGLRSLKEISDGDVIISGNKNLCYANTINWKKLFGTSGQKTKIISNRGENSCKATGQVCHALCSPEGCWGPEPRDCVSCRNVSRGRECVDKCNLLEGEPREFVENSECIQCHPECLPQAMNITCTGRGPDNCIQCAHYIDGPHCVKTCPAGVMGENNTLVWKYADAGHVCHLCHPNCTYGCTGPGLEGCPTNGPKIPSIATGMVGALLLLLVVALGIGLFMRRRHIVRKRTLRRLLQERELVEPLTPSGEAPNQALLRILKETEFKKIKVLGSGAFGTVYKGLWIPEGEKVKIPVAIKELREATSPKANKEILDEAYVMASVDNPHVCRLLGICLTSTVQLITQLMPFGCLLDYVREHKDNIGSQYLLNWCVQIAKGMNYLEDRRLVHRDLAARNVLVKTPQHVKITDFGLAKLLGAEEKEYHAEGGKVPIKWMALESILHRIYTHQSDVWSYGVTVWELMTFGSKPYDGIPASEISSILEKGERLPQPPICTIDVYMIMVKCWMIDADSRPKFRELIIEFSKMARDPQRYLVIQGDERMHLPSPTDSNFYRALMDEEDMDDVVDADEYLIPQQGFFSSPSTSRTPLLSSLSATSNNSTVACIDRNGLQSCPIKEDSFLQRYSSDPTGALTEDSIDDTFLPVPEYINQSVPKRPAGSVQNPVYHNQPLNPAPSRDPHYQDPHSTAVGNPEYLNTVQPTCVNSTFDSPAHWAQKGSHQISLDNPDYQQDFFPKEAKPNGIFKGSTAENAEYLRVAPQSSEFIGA
EGFR, sequence (P00533 25-1210): as above
ErbB2 with Exon 20 YVMA insertion (HER2-YVMA), sequence (P04626 other isoform, or with tags, fused parts or gaps ins YVMA behind 775): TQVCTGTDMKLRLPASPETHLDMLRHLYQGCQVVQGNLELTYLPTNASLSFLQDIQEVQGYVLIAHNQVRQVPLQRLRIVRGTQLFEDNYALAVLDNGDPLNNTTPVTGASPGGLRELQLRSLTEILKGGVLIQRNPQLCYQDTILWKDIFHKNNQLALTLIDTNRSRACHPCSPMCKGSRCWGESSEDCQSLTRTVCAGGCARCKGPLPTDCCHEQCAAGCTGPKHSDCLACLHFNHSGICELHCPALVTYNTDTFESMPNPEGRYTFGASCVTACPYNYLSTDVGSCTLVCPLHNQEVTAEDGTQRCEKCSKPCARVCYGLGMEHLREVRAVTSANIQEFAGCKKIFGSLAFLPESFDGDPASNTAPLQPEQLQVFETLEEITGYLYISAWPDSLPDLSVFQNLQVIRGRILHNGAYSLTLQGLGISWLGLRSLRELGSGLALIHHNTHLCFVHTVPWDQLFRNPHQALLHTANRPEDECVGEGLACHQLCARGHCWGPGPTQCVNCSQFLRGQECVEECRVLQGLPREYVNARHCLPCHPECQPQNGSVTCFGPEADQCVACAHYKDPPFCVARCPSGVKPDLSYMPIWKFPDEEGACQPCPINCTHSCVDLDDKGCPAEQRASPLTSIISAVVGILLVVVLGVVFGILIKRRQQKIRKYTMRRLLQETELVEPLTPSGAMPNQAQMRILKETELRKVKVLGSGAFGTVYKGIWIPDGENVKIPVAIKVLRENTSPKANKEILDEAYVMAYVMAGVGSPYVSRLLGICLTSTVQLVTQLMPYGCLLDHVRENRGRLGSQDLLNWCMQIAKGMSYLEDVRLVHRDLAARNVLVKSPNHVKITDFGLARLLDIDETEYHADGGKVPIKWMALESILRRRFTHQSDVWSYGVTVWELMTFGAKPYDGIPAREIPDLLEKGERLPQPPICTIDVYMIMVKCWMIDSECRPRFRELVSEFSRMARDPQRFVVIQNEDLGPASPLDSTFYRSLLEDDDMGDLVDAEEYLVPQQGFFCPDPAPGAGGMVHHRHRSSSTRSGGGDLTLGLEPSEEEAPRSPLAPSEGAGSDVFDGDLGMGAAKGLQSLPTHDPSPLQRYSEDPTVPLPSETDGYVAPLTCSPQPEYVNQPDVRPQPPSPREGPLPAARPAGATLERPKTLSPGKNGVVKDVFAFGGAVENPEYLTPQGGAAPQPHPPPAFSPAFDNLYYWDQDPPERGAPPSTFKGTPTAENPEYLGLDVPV

Compound | IC50 (ErbB2 WT) | IC50 (EGFR wild type (EGFR WT)) | IC50 [1] | IC50 (EGFR) | IC50 [2]
Cc1cc(Nc2ncnc3cnc(N(C)CC(C)(C)C#N)nc23)ccc1Oc1ccc2c(c1)ncn2C [Example 205, 2,2-dimethyl-3-(methyl(8-((3-methyl-4-((1-methyl-1H-benzo[d]imidazol-5-yl)oxy)phenyl)amino)pyrimido[5,4-d]pyrimidin-2-yl)amino)propanenitrile] | 104 nM | ≥ 5 µM | 25.6 nM | ≥ 10 µM | 29.7 nM
Cc1cc(Nc2ncnc3cnc(N4CCC[C@](C)(O)C4)nc23)ccc1Oc1ccc2c(c1)ncn2C [Example 461] | 31.9 nM | ≥ 5 µM | 46.5 nM | ≥ 10 µM | 20.5 nM
Cc1cc(Nc2ncnc3cnc(N4C[C@@H]5[C@H](C4)[C@@H]4CC[C@H]5O4)nc23)ccc1Oc1ccc2c(c1)ncn2C [Example 363] | 72.4 nM | ≥ 5 µM | 26.2 nM | ≥ 10 µM | 26.1 nM
Cc1cc(Nc2ncnc3cnc(N4CCP(C)(=O)CC4)nc23)ccc1Oc1ccc2c(c1)ncn2C [Example 463] | 275 nM | ≥ 5 µM | 662 nM | ≥ 10 µM | 71.3 nM
Cc1cc(Nc2ncnc3cnc(N4CC[C@@H](C#N)C4)nc23)ccc1Oc1ccn2ncnc2c1 [Example 404] | 37 nM | ≥ 5 µM | 182 nM | 7.55 µM | 22.8 nM
Cc1cc(Nc2ncnc3cnc(N4CCCO4)nc23)ccc1Oc1ccn2ncnc2c1 [Example 428] | 202 nM | ≥ 5 µM | 317 nM | ≥ 10 µM | 55.5 nM
Cc1c(Oc2ccc3c(c2)ncn3C)ccc(Nc2ncnc3cnc(N(C)CC(C)(C)O)nc23)c1F [Example 438] | 47 nM | ≥ 5 µM | 134 nM | ≥ 10 µM | 27.4 nM
Cc1cc(Nc2ncnc3cnc(N4CCN(C)[C@H](C)C4)nc23)ccc1Oc1ccn2ncnc2c1 [Example 136, (R)—N-(4-([1,2,4]triazolo[1,5-a]pyridin-7-yloxy)-3-methylphenyl)-6-(3,4-dimethylpiperazin-1-yl)pyrimido[5,4-d]pyrimidin-4-amine] | 59.3 nM | ≥ 5 µM | 315 nM | ≥ 10 µM | 55.3 nM
Cn1cnc2cc(Oc3ccc(Nc4ncnc5cnc(N6CCOC(C)(C)C6)nc45)cc3Cl)ccc21 [Example 448] | 143 nM | ≥ 5 µM | 40.8 nM | ≥ 10 µM | 75.9 nM
Cc1cc(Nc2ncnc3cnc(N4CCOC5(CC5)C4)nc23)ccc1Oc1ccc2c(c1)ncn2C [Example 58, N-(3-methyl-4-((1-methyl-1H-benzo[d]imidazol-5-yl)oxy)phenyl)-6-(4-oxa-7-azaspiro[2.5]octan-7-yl)pyrimido[5,4-d]pyrimidin-4-amine] | 123 nM | ≥ 5 µM | 10.6 nM | ≥ 10 µM | 62.5 nM
Cc1cc(Nc2ncnc3cnc(N4CCN[C@@H](C)C4)nc23)ccc1Oc1ccc2c(c1)ncn2C [Example 278] | 42.9 nM | ≥ 5 µM | 13.5 nM | 9.55 µM | 22 nM
Cc1cc(Nc2ncnc3cnc(N4CCC(C)(O)CC4)nc23)c(F)cc1Oc1ccc2c(c1)ncn2C [Example 215, 1-(8-((2-fluoro-5-methyl-4-((1-methyl-1H-benzo[d]imidazol-5-yl)oxy)phenyl)amino)pyrimido[5,4-d]pyrimidin-2-yl)-4-methylpiperidin-4-ol] | 120 nM | ≥ 5 µM | 37.8 nM | ≥ 10 µM | 28.8 nM
Cc1cc(Nc2ncnc3cnc(NC4=NC(C)(C)CO4)nc23)ccc1Oc1ccn2ncnc2c1 [Example 362] | 32.1 nM | ≥ 5 µM | 1260 nM | 3.39 µM | 26.3 nM
Cc1cc(Nc2ncnc3cnc(N4CCC[C@@](C)(O)C4)nc23)ccc1Oc1ccn2ncnc2c1 [Example 414] | 23.7 nM | ≥ 5 µM | 140 nM | 1.41 µM | 25.2 nM
Cc1cc(Nc2ncnc3cnc(O[C@H]4CNCC[C@H]4F)nc23)ccc1Oc1ccc2c(c1)ncn2C [Example 290] | 601 nM | ≥ 5 µM | 83.5 nM | ≥ 10 µM | 92.5 nM
Cc1cc(Nc2ncnc3cnc(O[C@H]4CNCC4(F)F)nc23)ccc1Oc1ccc2c(c1)ncn2C [Example 303] | 403 nM | ≥ 5 µM | 257 nM | ≥ 10 µM | 64.2 nM
